Data published in the NIST ThermoML archive (doi:10.1021/acs.jced.8b00160).

What was measured:
[1] = wn = mass fraction of the nth substance listed; settings: 100 kPa, Liquid, Vibrating tube method
[2] = refractive index (Na D-line) (dimensionless); wn = mass fraction of the nth substance listed; settings: 100 kPa, Liquid, Standard Abbe refractometry
[3] = refractive index (Na D-line) (dimensionless); settings: 100 kPa, Liquid, Standard Abbe refractometry

O=P([O-])([O-])O.[K+].[K+] [dipotassium hydrogen phosphate] + O
298.15 K
Settings | mass density, [1] [kg/m3] | refractive index, [2]
w1 = 0.02 | 1014.3 | 1.336
w1 = 0.05 | 1040.9 | 1.3401
w1 = 0.1 | 1086.7 | 1.3478
w1 = 0.15 | 1134 | 1.3551
w1 = 0.2 | 1183.1 | 1.3626
w1 = 0.25 | 1234.3 | 1.3697
w1 = 0.3 | 1287.3 | 1.3774

CC(C)O [propan-2-ol] + O
Settings | mass density, 298.15 K [kg/m3] | mass density, 308.15 K [kg/m3] | mass density, 318.15 K [kg/m3] | refractive index, 298.15 K | refractive index, 308.15 K | refractive index, 318.15 K
[1], w1 = 0.1 | 979.9 | 976.9 | 973.7 | – | – | –
[1], w1 = 0.2 | 966.6 | 958.7 | 954.8 | – | – | –
[1], w1 = 0.3 | 946 | 941.9 | 934.4 | – | – | –
[1], w1 = 0.4 | 925.7 | 916.8 | 911.5 | – | – | –
[1], w1 = 0.5 | 901.7 | 896.2 | 887.6 | – | – | –
[1], w1 = 0.6 | 879 | 871.6 | 862.4 | – | – | –
[2], w1 = 0.1 | – | – | – | 1.3418 | 1.3372 | 1.3356
[2], w1 = 0.2 | – | – | – | 1.3506 | 1.3475 | 1.3447
[2], w1 = 0.3 | – | – | – | 1.3573 | 1.3559 | 1.3531
[2], w1 = 0.4 | – | – | – | 1.3629 | 1.3623 | 1.3596
[2], w1 = 0.5 | – | – | – | 1.367 | 1.3668 | 1.3643
[2], w1 = 0.6 | – | – | – | 1.3705 | 1.3694 | 1.3679

O=P([O-])([O-])[O-].[K+].[K+].[K+] [tripotassium phosphate] + O
Settings | mass density, 298.15 K [kg/m3] | mass density, 308.15 K [kg/m3] | mass density, 318.15 K [kg/m3] | refractive index, 298.15 K | refractive index, 308.15 K | refractive index, 318.15 K
[1], w1 = 0.02 | 1015.8 | 1011.9 | 1008.3 | – | – | –
[1], w1 = 0.05 | 1048.6 | 1045 | 1040.4 | – | – | –
[1], w1 = 0.1 | 1106.7 | 1102.7 | 1100.3 | – | – | –
[1], w1 = 0.15 | 1176.8 | 1172.6 | 1171.1 | – | – | –
[1], w1 = 0.2 | 1203.4 | 1199.8 | 1194.9 | – | – | –
[1], w1 = 0.25 | 1226.9 | 1223.5 | 1218 | – | – | –
[1], w1 = 0.3 | 1241.7 | 1237.1 | 1231.8 | – | – | –
[2], w1 = 0.02 | – | – | – | 1.3356 | 1.3346 | 1.3337
[2], w1 = 0.05 | – | – | – | 1.3413 | 1.3402 | 1.3386
[2], w1 = 0.1 | – | – | – | 1.3537 | 1.3512 | 1.3488
[2], w1 = 0.15 | – | – | – | 1.3651 | 1.3632 | 1.3606
[2], w1 = 0.2 | – | – | – | 1.3792 | 1.3768 | 1.3736
[2], w1 = 0.25 | – | – | – | 1.3962 | 1.3928 | 1.3885
[2], w1 = 0.3 | – | – | – | 1.418 | 1.4109 | 1.4029

O [water]
[3]
Settings | refractive index
298.15 K | 1.3324
308.15 K | 1.3302
318.15 K | 1.3298
